This assay has as its system HIV-1 (HIVIIIB). The assay is described as follows: HIV-1 replication in MT2 cell line with and without 30% human serum (viral RT activity in supernatant). Format: cell-based. The note with it: Human immunodeficiency virus 1, MT2, MT-2 cells, average IC50 if tested more than once. A digest of the protocol: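 MT2 cells infected with HIVIIIB at MOI 0.5 for 3 h, washed, then cultured with serially diluted compound in RPMI/10% FBS, with or without 30% human serum, at 37° C. Compound-containing medium refreshed at day 3. Replication measured as supernatant RT activity at day 5; IC50 and IC90 from curve fits.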

Setting [1] is: with 30% human serum, read-out: MT-2 (HIVIIIB) with 30% HS IC50 range.
[2] abbreviates: without HS, read-out: MT-2 (HIVIIIB) IC50 range.

SMILES strings stand for the structures. Read-outs that look alike come from different tables or passages of the source.

The term IC50 denotes the concentration at which inhibition is half-maximal. For `CC(C)C1=C2[C@H]3CC[C@@H]4[C@@]5(C)CC[C@H](OC(=O)CC(C)(C)C(=O)O)C(C)(C)[C@@H]5CC[C@@]4(C)[C@]3(C)CC[C@@]2(C(=O)N2CCC(NC(=O)OC(C)(C)C)CC2)CC1=O` [9-41, 3β-O-(3′,3′-Dimethylsuccinyl)-21-oxolup-18-en-28-oic acid N-(4-aminocarboxylic acid tert-butyl-ester-1-piperidine)-acetamide], the IC50 under setting [1] is below 199 nM. In the case of `CC(C)C1=C2[C@H]3CC[C@@H]4[C@@]5(C)CC[C@H](OC(=O)CC(C)(C)C(=O)O)C(C)(C)[C@@H]5CC[C@@]4(C)[C@]3(C)CC[C@@]2(C(=O)N2CCC2)CC1=O` [9-70, 3β-O-(3′,3′-Dimethylsuccinyl)-21-oxolup-18-en-28-oic acid N-azetidine-1 acetamide], the IC50 under setting [1] was below 199 nM. Still for that read-out and setting: under `CC(C)C1=C2[C@H]3CC[C@@H]4[C@@]5(C)CC[C@H](OC(=O)CC(C)(C)C(=O)O)C(C)(C)[C@@H]5CC[C@@]4(C)[C@]3(C)CC[C@@]2(C(=O)NC(C)(C)c2ccccc2)CC1=O` [9-34, 3β-O-(3′,3′-Dimethylsuccinyl)-21-oxolup-18-en-28-oic acid N-(1-methyl-1-phenyl-ethyl)-acetamide] stands below 199 nM. For the molecule `CC(C)C1=C2C3CCC4[C@@]5(C)CC[C@H](OC(=O)CC(C)(C)C(=O)O)C(C)(C)C5CC[C@@]4(C)[C@]3(C)CC[C@@]2(C(=O)Nc2ccccc2Cl)CC1=O` (stereo partly drawn) [9-86, 3β-O-(3′,3′-Dimethylsuccinyl)-21-oxolup-18-en-28-oic acid N-2-chloro-phen-1-yl acetamide], the IC50 under setting [1] is below 199 nM. Consider `CC(C)NC(=O)[C@@]12CC[C@]3(C)[C@H](CC[C@@H]4[C@@]5(C)CC[C@H](OC(=O)CC(C)(C)C(=O)O)C(C)(C)[C@@H]5CC[C@]43C)C1=C(C(C)C)C(=O)C2` [9-3, 3β-O-(3′,3′-Dimethylsuccinyl)-21-oxolup-18-en-28-oic acid N-isopropylamide], for which the IC50 under setting [2] is below 199 nM.

Take `CC(C)C1=C2[C@H]3CC[C@@H]4[C@@]5(C)CC[C@H](OC(=O)CC(C)(C)C(=O)O)C(C)(C)[C@@H]5CC[C@@]4(C)[C@]3(C)CC[C@@]2(C(=O)NCc2cccnc2)CC1=O` [9-17, 3β-O-(3′,3′-Dimethylsuccinyl)-21-oxolup-18-en-28-oic acid N-pyridin-3-ylmethylamide]: under setting [1], the IC50 was below 199 nM. Turning to `CC(C)C1=C2[C@H]3CC[C@@H]4[C@@]5(C)CC[C@H](OC(=O)CC(C)(C)C(=O)O)C(C)(C)[C@@H]5CC[C@@]4(C)[C@]3(C)CC[C@@]2(C(=O)Nc2cncc3ccccc23)CC1=O` [9-63, 3β-O-(3′,3′-Dimethylsuccinyl)-21-oxolup-18-en-28-oic acid N-isoquinolin-4-yl-acetamide], the 50% inhibitory concentration (IC50) under setting [1] was below 199 nM. For `CC(C)C1=C2[C@H]3CC[C@@H]4[C@@]5(C)CC[C@H](OC(=O)CC(C)(C)C(=O)O)C(C)(C)[C@@H]5CC[C@@]4(C)[C@]3(C)CC[C@@]2(C(=O)NC2CCCCC2)CC1=O` [9-4, 3β-O-(3′,3′-Dimethylsuccinyl)-21-oxolup-18-en-28-oic acid N-cyclohexylamide], the IC50 under setting [2] was below 199 nM. Turning to `CC(C)C1=C2[C@H]3CC[C@@H]4[C@@]5(C)CC[C@H](OC(=O)CC(C)(C)C(=O)O)C(C)(C)[C@@H]5CC[C@@]4(C)[C@]3(C)CC[C@@]2(C(=O)Nc2nccc(C(F)(F)F)n2)CC1=O` [9-72, 3β-O-(3′,3′-Dimethylsuccinyl)-21-oxolup-18-en-28-oic acid N-4-trifluoro-pyrimidin-2-yl-acetamide], the IC50 under setting [1] was below 199 nM. In the case of `CC(C)C1=C2[C@H]3CC[C@@H]4[C@@]5(C)CC[C@H](OC(=O)CC(C)(C)C(=O)O)C(C)(C)[C@@H]5CC[C@@]4(C)[C@]3(C)CC[C@@]2(C(=O)NCc2ccccc2)CC1=O` [9-1, 3β-O-(3′,3′-Dimethylsuccinyl)-21-oxolup-18-en-28-oic acid N-benzylamide], under setting [2], the IC50 is below 199 nM. Turning to `CC(C)C1=C2[C@H]3CC[C@@H]4[C@@]5(C)CC[C@H](OC(=O)CC(C)(C)C(=O)O)C(C)(C)[C@@H]5CC[C@@]4(C)[C@]3(C)CC[C@@]2(C(=O)Nc2ccccc2)CC1=O` [9-10, 3β-O-(3′,3′-Dimethylsuccinyl)-21-oxolup-18-en-28-oic acid N-benzamide], the IC50 under setting [1] was below 199 nM. With `CC(=O)NC1CCN(C(=O)[C@@]23CC[C@]4(C)[C@H](CC[C@@H]5[C@@]6(C)CC[C@H](OC(=O)CC(C)(C)C(=O)O)C(C)(C)[C@@H]6CC[C@]54C)C2=C(C(C)C)C(=O)C3)CC1` [9-43, 3β-O-(3′,3′-Dimethylsuccinyl)-21-oxolup-18-en-28-oic acid N-(4-acetylamino-1-piperidine)-acetamide], the IC50 under setting [1] was below 199 nM. On the same count and under the same terms, the same measure for `Cc1ccc(NC(=O)[C@@]23CC[C@]4(C)[C@H](CC[C@@H]5[C@@]6(C)CC[C@H](OC(=O)CC(C)(C)C(=O)O)C(C)(C)[C@@H]6CC[C@]54C)C2=C(C(C)C)C(=O)C3)cc1` [9-49, 3β-O-(3′,3′-Dimethylsuccinyl)-21-oxolup-18-en-28-oic acid N-4-methyl-phen-1-yl acetamide]: below 199 nM.

`CC(C)C1=C2[C@H]3CC[C@@H]4[C@@]5(C)CC[C@H](OC(=O)CC(C)(C)C(=O)O)C(C)(C)[C@@H]5CC[C@@]4(C)[C@]3(C)CC[C@@]2(C(=O)NCc2ccccn2)CC1=O` [9-16, 3β-O-(3′,3′-Dimethylsuccinyl)-21-oxolup-18-en-28-oic acid N-pyridin-2-ylmethylamide]: the IC50 under setting [1] is below 199 nM.

For the molecule `CC(C)OC(=O)NC1CCN(C(=O)[C@@]23CC[C@]4(C)[C@H](CC[C@@H]5[C@@]6(C)CC[C@H](OC(=O)CC(C)(C)C(=O)O)C(C)(C)[C@@H]6CC[C@]54C)C2=C(C(C)C)C(=O)C3)CC1` [9-68, 3β-O-(3′,3′-Dimethylsuccinyl)-21-oxolup-18-en-28-oic acid N-(4-aminocarboxylic acid isopropyl ester-1-piperidine)-acetamide], under setting [1], the IC50 is below 199 nM. Take `CC(=O)NCCNC(=O)[C@@]12CC[C@]3(C)[C@H](CC[C@@H]4[C@@]5(C)CC[C@H](OC(=O)CC(C)(C)C(=O)O)C(C)(C)[C@@H]5CC[C@]43C)C1=C(C(C)C)C(=O)C2` [9-22, 3β-O-(3′,3′-Dimethylsuccinyl)-21-oxolup-18-en-28-oic acid N-(2-acetylamino-ethyl)-acetamide]: under setting [1], the IC50 was below 199 nM.

Values taken from patent US8431556B2, “C-21-keto lupane derivatives preparation and use thereof” (Vertex Pharmaceuticals Incorporated, priority 2008, dated 2013).
